The target of one test is T1, ecFoID (Escherichia coli, UniProt P24186).
T1 construct: His-tag (vector pHis-TEV); made in house; host or cells: E. coli BL21 (DE3)
Briefly: FoID cyclohydrolase (CYH) enzyme assay. Type of test: biochemical, E. coli. The protocol: (6R,S)-5,10-Methylene-5,6,7,8-tetrahydrofolic acid ((6R,S)-5,10-CH2-THF), calcium salt and (6R,S)-5,10-Methenyl-5,6,7,8-tetrahydrofolic acid ((6R,S)-5,10-CH=THF) chloride were purchased from Schircks Laboratories (Bauma, Switzerland) and were used as substrates for FoID dehydrogenase and cyclohydrolase enzyme assays, respectively. Only the R-isomer, which accounts for 50% of (6R,S)-5,10-CH2-THF and (6R,S)-5,10-CH=THF, respectively, is used by the enzyme. (6R,S)-5,10-CH2-THF was dissolved in N2-spargeled basic buffer (50 mM Tris-HCl (pH 8.0), 100 mM β-mercaptoethanol) as described by Sah and Varshney, 2015a (6R,S)-5,10-CH=THF was first dissolved in DMSO as a 100 mM stock solution.
Because FoID is a bifunctional enzyme, dehydrogenase and cyclohydrolase activities were determined for FoID enzyme kinetics, respectively. The dehydrogenase activity of FoID was assayed for its substrate 5,10-CH2-THF and cofactor NADP+ (in the case of MTHFD2, NAD+ was used as cofactor) based on monitoring the formation of 5,10-CH=THF while the cyclohydrolase activity of FoID was determined for its substrate 5,10-CH=THF by monitoring the hydrolysis of 5,10-CH2-THF. The enzyme kinetics for the dehydrogenase activity of all FoIDs except hsMTHFD1_DC were determined at 30° C. in 50 mM Tris-HCl (pH 7.5), 30 mM β-mercaptoethanol. […]

For another test, the target named is T2, hsMTHFD2 (Homo sapiens, UniProt P13995).
T2 construct: His-tag (vector pHis-TEV); made in house; host or cells: E. coli BL21 (DE3)
T2 sequence (P13995 36-350): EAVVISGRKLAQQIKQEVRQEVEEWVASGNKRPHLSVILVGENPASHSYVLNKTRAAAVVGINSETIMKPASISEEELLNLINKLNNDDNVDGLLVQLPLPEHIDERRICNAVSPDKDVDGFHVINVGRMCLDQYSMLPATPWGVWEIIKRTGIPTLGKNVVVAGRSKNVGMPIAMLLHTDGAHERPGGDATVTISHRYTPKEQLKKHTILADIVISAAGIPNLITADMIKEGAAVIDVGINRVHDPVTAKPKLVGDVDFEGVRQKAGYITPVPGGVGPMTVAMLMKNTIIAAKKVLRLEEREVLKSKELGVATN
Description: Surface plasmon resonance assay. The conditions noted are these: read-out: KD (SPR). Type of test: binding. The protocol: All surface plasmon resonance (SPR) experiments described in this study were performed on a Biacore X100 system. Different FoIDs with or without His-tag were coupled on CM5 sensor chips (GE Healthcare) by the amine coupling method using a kit from GE Healthcare Life Sciences (Freiburg, Germany). A pH scouting process was performed before protein immobilization to test the most appropriate buffer and the protein concentration for protein coupling. Finally, 20 μg/mL of ecFoID in 10 mM maleate buffer (pH 6.8), 30 μg/mL of ecFoID Q98H in 10 mM maleate buffer (pH 6.3), 40 μg/mL of ecFoID K54N in 10 mM maleate buffer (pH 5.8), 20 μg/mL of spFoID in 10 mM maleate buffer (pH 6.0) and 15 μg/mL of MTHFD2 (His-tag cleaved) in 10 mM maleate buffer (pH 6.8) were used for coupling. In the protein immobilization procedure, the contact time was calculated based on the pH scouting results to achieve -3000-5000 relative resonance units (RU). The buffer used in the SPR assays was 1×HBS-P buffer (10 mM HEPES pH 7.4, 150 mM NaCl, 0.05% Tween 20). The 1 mM stock solution of carolacton was prepared in 1×HBS-P buffer and diluted to different concentration ranges by two-fold serial dilution. In the SPR assay, the association time was 180 s and the dissociation time was 600 s. Data analysis was performed using the Biacore evaluation software. […]
On the technique in general: Surface plasmon resonance follows binding to a sensor surface in real time, without labels.

Values joined by “and” are separate entries in the source; they are usually repeats but may differ in a detail not shown here. Identical values can stand only once.

The term IC50 denotes the point on the concentration scale where inhibition reaches its midpoint. A high value points to a need for much substance. Usually Ki stands for the equilibrium dissociation constant of an inhibitor or competing ligand from its target. Usually Kd stands for the equilibrium constant for the complex coming apart. On to `CO[C@H](CC(=O)O)[C@@H](C)C(=O)[C@H](C)/C=C(\C)[C@H]1OC(=O)[C@H](O)[C@H](O)/C=C/[C@H](C)CCC[C@@H]1C` [Carolacton, carolacton], for which the half-inhibitory concentration (IC50) on ecFoID was found to be 49.8 nM. Moreover, at ecFoID (Ki (5,10-CH═THF), carolacton inhibition on CYH activity, ecFoID, vs 5,10-CH=THF), the Ki was 32 nM and 31.6 nM. Also, the dissociation constant (Kd) on hsMTHFD2 amounted to 19 nM.

The record behind these values is patent US11357752B2, “Carolacton and derivatives thereof for use in the treatment of cell proliferation disorders” (Helmholtz-Zentrum für Infektionsforschung GmbH, priority 2017, dated 2022).
